Activity calls are given as the source filed them. How the calls were made is not given here. A value given as a limit tells only on which side of the number the result lay.

This assay deals with Trace amine-associated receptor 1 (Homo sapiens) (UniProt Q96RJ0). Nature of the assay: TAAR1 agonists in human receptor cells, SAR follow-up, cell-based, fluorescence, MedChem round 2 (AID 1053181). The settings on record: TAAR1-expressing cells, fluorescence agonist read-out.
Trace amine-associated receptor 1 (Homo sapiens), sequence (Q96RJ0 whole entry, looked up, the tested form may be a part): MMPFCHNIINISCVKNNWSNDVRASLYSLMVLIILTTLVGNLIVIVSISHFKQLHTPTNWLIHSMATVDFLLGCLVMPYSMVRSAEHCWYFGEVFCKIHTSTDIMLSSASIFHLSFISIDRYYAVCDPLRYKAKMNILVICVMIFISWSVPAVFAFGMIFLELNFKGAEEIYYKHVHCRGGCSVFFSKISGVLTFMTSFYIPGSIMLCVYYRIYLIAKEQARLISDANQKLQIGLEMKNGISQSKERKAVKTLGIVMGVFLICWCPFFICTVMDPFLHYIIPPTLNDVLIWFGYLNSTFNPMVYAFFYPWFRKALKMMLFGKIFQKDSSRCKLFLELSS
Broadly, the EC50 is the concentration needed to bring the measured effect to its halfway point. For the compound `N#Cc1c(C(F)(F)F)cc(-c2ccc(Cl)cc2)nc1SCC(=O)N1CCCC1`, the concentration giving a half-maximal response (EC50) was 1070 nM.

In the case of `CC(CN1CCCC1Cc1ccccc1)C(=O)c1ccc2c(c1)OCCO2` (configuration not stated), the EC50 was 2960 nM.

Regarding `Cc1ccc(C(=O)CCN2CCC(c3ccccc3)C2)cc1` (configuration not stated), the EC50 was 672 nM.

As for `N#Cc1c(C(F)(F)F)cc(-c2ccc(Cl)cc2)nc1SCC(=O)N1CCCCCC1`, the EC50 is > 29900 nM (inactive).

As to `N#Cc1c(C(F)(F)F)cc(-c2ccc(Cl)cc2)nc1SCC(=O)Nc1ncccn1`, the concentration giving a half-maximal response (EC50) was 3.74 nM.

Turning to `O=C(CCN1CCC(c2ccccc2)C1)c1ccccc1` (configuration not stated), the 50% effective concentration (EC50) was 765 nM.

On to `COc1cc(C(=O)CCN2CCC(c3ccccc3)C2)cc(OC)c1OC` (configuration not stated), for which the EC50 is 419 nM.
